{"source": "patent US11298347B2", "about": "“Methods of diagnosing and treating Tourette syndrome” (THE CHILDREN'S HOSPITAL OF PHILADELPHIA, priority 2015, dated 2022)", "key": {"[1]": {"tested_on": "adenylate cyclase activity", "conditions": "Oka 1997; cited from earlier work"}, "[2]": {"conditions": "prior human studies; cited from earlier work"}, "[3]": {"tested_on": "group I and group II/III mGluRs", "conditions": "in vitro studies (Hirouchi 2000); cited from earlier work"}, "[4]": {"conditions": "cited from earlier work"}, "[5]": {"assay": "open-label Phase Ib clinical trial of NFC-1 in adolescent ADHD subjects with a genetic alteration in an mGluR network gene", "assay_type": "in vivo, human", "method": "An open-label Phase Ib clinical trial was conducted to investigate the safety, pharmacokinetics and efficacy of NFC-1 (fasoracetam monohydrate) in adolescent subjects between the ages of 12 and 17 previously diagnosed with ADHD who also had at least one genetic alteration in an mGluR network gene.\nThe study included 30 ADHD subjects who were between ages 12 and 17, of any ancestry or race, of weight within the 5th to 95th percentile for their age, and otherwise judged to be in good medical health. […] Seventeen of the 30 subjects have a CNV in a tier 1 mGluR network gene, while 7 subjects have a CNV in a tier 2 gene and 6 in a tier 3 gene.\nExclusion criteria comprised subjects suffering from a clinically significant illness, either mental or physical, that, in the investigator's opinion, might confound the results of the study or that might prevent them from completing the study, subjects that are pregnant or nursing, subjects that test positive for illicit drugs of that have a history of drug abuse, subjects that consume alcoholic beverages, or subjects for which the investigator is otherwise concerned regarding their compliance or suitability.\nNFC-1 capsules of either 50 mg or 200 mg comprising fasoracetam monohydrate as active ingredient and placebo capsules comprising microcellulose were used for the study. The design of the trial was a phone screening (1 day), enrollment phase (1 to 2 days), a wash-out phase for subjects currently on ADHD medications (1-14 days), pharmacokinetic (PK) assessment (2 days), followed by a dose-escalation phase (35 days) and a follow-up phone visit approximately four weeks after the last dose, for a maximum of 127 days. All ADHD medications were discontinued during the wash-out phase prior to the study. The wash-out period for stimulants was 2-3 days and that for atomoxetine or noradrenergic agonists was 10-12 days. No new ADHD medications were started during the study.\nA dose-escalation phase of the trial ran over a 5-week period, after the initial wash-out period and the PK and initial safety assessments. During week 1, all subjects were administered placebo capsules twice daily. After one week of placebo treatment, patients were started on 50 mg bid NFC-1 for 1 week. If safety and responsiveness data from prior dose level of fasoracetam indicated it was appropriate, subjects were then escalated to the next higher dose (100, 200, or 400 mg).\nOf the 30 trial subjects, 3 received a maximum dose of 100 mg, 9 received a maximum dose of 200 mg, and the remaining 18 received a maximum dose of 400 mg."}}}
{"smiles": "O=C1CC[C@H](C(=O)N2CCCCC2)N1", "note": "[Fasoracetam, fasoracetam]", "values": [{"measurement": "adenylate cyclase activity by stimulating group II and III mGluRs", "setting": "[1]", "result": "may also inhibit adenylate cyclase activity"}, {"measurement": "adenylate cyclase activity through activation of group I mGluRs", "setting": "[1]", "result": "may stimulate adenylate cyclase activity"}, {"measurement": "half-life", "setting": "[2]", "result": "5 to 6.5", "unit": "h"}, {"measurement": "stimulation of mGluRs", "setting": "[3]", "result": "can stimulate both group I and group II/III mGluRs"}]}
{"smiles": "O=C1CC[C@H](C(=O)N2CCCCC2)N1", "note": "[NFC-1, fasoracetam monohydrate]", "values": [{"measurement": "safety and tolerability", "setting": "[4]; Phase I-III clinical trials", "result": "generally safe and well tolerated"}, {"measurement": "effects on psychiatric symptoms", "setting": "[4]; Phase III data, cerebral infarct patients and adult dementia patients with cerebrovascular diseases", "result": "beneficial effects"}, {"measurement": "efficacy in dementia", "setting": "[4]; Phase III trials, dementia-related cognitive impairment", "result": "did not show sufficient efficacy"}, {"measurement": "OCD symptoms during therapy", "setting": "[5]; all eight subjects with symptoms of OCD", "result": "improved"}, {"measurement": "dermatillomania symptoms", "setting": "[5]; one subject with OCD and history of ear scratching", "result": "reduced"}, {"measurement": "bleeding ulcer from ear scratching", "setting": "[5]; one subject with OCD and history of ear scratching (dermatillomania)", "result": "healed"}, {"measurement": "tics during therapy", "setting": "[5]; two individuals with history of recurrent tics, 50-400 mg bid dose escalation", "result": "did not demonstrate tics"}]}
